Laboratory results published in PubChem BioAssay AID540268 (Broad Institute, 2011).
Activity calls are given as the source filed them. How the calls were made is not given here.

Experiment: growth inhibition of yeast carrying parasite Hsp90, dose response, anti-malarial Hsp90 inhibitor project, ATP luminescence, 48 h, cherry-picked samples (AID 540268);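 on activity change, negative = inhibition: 0% = neutral control wells and -100% = positive control wells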
Details: yeast expressing the parasite Hsp90, ATP luminescence; for activity change, negative = inhibition: at 26 µM (top of the series)

Structure (SMILES) | AC50 [µM] | activity change, negative = inhibition
O=C(N/N=C/c1ccccn1)c1cc(-c2ccc(Cl)cc2)nc2ccccc12 | 8.57 | 
O=C(/C=C/c1ccc(F)cc1)NC(=S)NNC(=O)c1cnccn1 | 2.71 | 
CC(=NNc1nc2ccccc2o1)c1ncccn1 | 1.33 | 
COc1cccc(/C=N/Nc2ncnc3scc(-c4ccccc4)c23)c1O | 15.3 | 
COc1ccc(C(=O)N/N=C/c2sc3ccccc3c2O)cc1 | 2.35 | 
Oc1ccc2ccccc2c1N=Nc1nccs1 | 0.63 | 
Cc1ccc(N=Cc2c(C)[nH]n(-c3nc4ccccc4[nH]3)c2=O)cc1 | 2.4 | 
CSc1nnc2c3cc(F)ccc3n(C)c2n1 | 5.49 | 
Cc1ccc2nc(-c3ccc(NS(=O)(=O)c4ccc(F)cc4)cc3)sc2c1 |  | 144% (inactive)
O=[N+]([O-])c1ccc(NC(=S)NCCc2ccc(Cl)cc2)cc1 | 4.25 | 
CCCCCCc1cc2cc(S(=O)(=O)c3ccc(Cl)cc3)c(=O)oc2cc1O | 0.745 | 
O=C(Nc1nnc(-c2ccc3c(c2)CCCC3)o1)c1ccc(Cl)cc1Cl | 3.35 | 
Cc1cc(C)cc(N=Cc2ccc([N+](=O)[O-])s2)c1 | 3.94 | 
Oc1ccc(-c2nc3ccc4ccccc4c3c3c2CCC3)cc1O | 8.29 | 
CCCC(=O)NC(c1ccc2c(c1)OCO2)c1cc(Cl)c2cccnc2c1O (stereo not drawn) | 4.45 | 
Oc1ccc2ccccc2c1N=Nc1ccccn1 | 2.66 | 
O=C1CC(N2CCCN(C3CC(=O)N(c4ccc(F)cc4)C3=O)CC2)C(=O)N1c1ccc(F)cc1 (stereo not drawn) | 3.49 | 
CC(C)(C)c1nn(-c2ccccc2)c2[nH]c(=O)c(C=O)cc12 | 1.31 | 
CCCCCCOC(=O)Sc1nc2ccccc2o1 | 1.57 | 
Cc1cccc(N2C(=O)C=CC2=O)c1 | 0.372 | 
CC(C)CC(=O)NC(c1cccs1)c1ccc2cccnc2c1O (stereo not drawn) | 2.72 | 
NC(=O)c1ccc(N=Cc2ccc([N+](=O)[O-])s2)cc1 | 1.48 | 
CCOC(=O)/C(=C/c1ccc(OC(=O)c2ccccc2)cc1)C(C)=O | 1.43 | 

Structure (SMILES) | AC50 [µM] | activity change, negative = inhibition
Cc1c(C(=O)NCCSCc2cccc(C(F)(F)F)c2)cnn1-c1ccc(Cl)cc1 | 8.59 | 
S=C1Cc2ccccc2N1 | 3.36 | 
CC(C)(C)C1C/C(=C/c2ccccn2)C(=O)/C(=C/c2ccccn2)C1 (stereo not drawn) | 8.29 | 
Cc1ccc(C(C)C)c(OCc2ccc(C(=O)N/N=C/c3cccc(O)c3O)cc2)c1 | 1.62 | 
O=C(CSCC(=O)N1CCCCC1)Nc1nc(-c2ccc(Cl)s2)cs1 | 4.76 | 
O=C1C(Cl)=C(Oc2ccccc2)C(=O)c2ccccc21 | < 0.195 | 
Cc1nnc(N=c2ssnc2Cl)o1 | 1.03 | 
CC1OC(CC(=O)O)CC2=C1C(=O)c1c(O)cccc1C2=O (stereo not drawn) | < 0.195 | 
O=c1c(-c2ccccc2)c(-c2ccccc2)oc2cc(O)cc(O)c12 | 8.72 | 
CCCCCCCCCCOC(=O)Cn1c(COc2ccc(OC)cc2)[n+](C)c2ccccc21 | 24.4 | 
O=C(/C(=C/c1cccc(Cl)c1)c1nc2ccccc2[nH]1)c1ccccc1 |  | 49.8% (inactive)
Cc1ccc(S(=O)(=O)c2ccc([N+](=O)[O-])cn2)cc1 | 3.87 | 
Cc1cc(N=Nc2ccccc2C(=O)O)c(C)c(C)c1O | 4.79 | 
O=[S@]1Oc2ccccc2-c2ccccc21 | 1.67 | 
CC(=O)C1=C(c2ccc(Br)cc2)C(=O)c2ccccc2C1=O | 7.82 | 
CCOc1ccc(NCc2cc3c(C(C)(C)C)nn(-c4ccccc4)c3[nH]c2=O)cc1 | 18.1 | 
Cc1cc(/C=C2\SC(=S)NC2=O)c(C)n1-c1ccc(O)cc1 | 4.65 | 
COc1ccc(-c2nn(-c3ccccc3)cc2C(=O)N2CCN(S(=O)(=O)c3cccc(F)c3)CC2)cc1 | 1.15 | 
O=C1CC(N2CCC(c3nc4ccccc4o3)CC2)C(=O)N1c1ccc(Cl)c(C(F)(F)F)c1 (stereo not drawn) | 4.08 | 
CCOC(=O)/C(=C\c1cccnc1)C(=O)c1cc(C(C)=O)c(Nc2ccccc2)s1 | 3.93 | 
COc1cc(N2C(=O)C=CC2=O)c(OC)cc1Cl | 1.77 | 
O=S(=O)(Nc1nc2ccccc2nc1N1CCN(c2ccccn2)CC1)c1ccc(Cl)cc1 | 8.25 | 
Cc1ccc(C(c2cc(Cl)c3cccnc3c2O)N2CCN(C)CC2)cc1 (stereo not drawn) | 0.507 | 

Structure (SMILES) | AC50 [µM] | activity change, negative = inhibition
CCCCCCC(=O)N(O)C1CC(=O)N(c2ccc(C)cc2)C1=O (stereo not drawn) | 0.829 | 
C/C(=N\Nc1ncc(Cl)cc1Cl)c1ccccn1 | 1.8 | 
Cc1ccc(CNC(=O)c2ccc(Cn3nc(C)c(Cl)c3C)o2)cc1 | 7.23 | 
O=C1C2C3C=CC(CNS(=O)(=O)c4ccccc4[N+](=O)[O-])(O3)C2C(=O)N1c1ccccc1 (stereo not drawn) | 10.3 | 
Oc1cccc2ccc(/C=C/c3ccccc3Cl)nc12 | 16.3 | 
C[C@@]12C(=O)Nc3ccc(F)cc3C(=O)N1[C@H]1c3ccccc3OC[C@@H]1[C@@H]2c1ccccc1 | < 0.195 | 
CC(=O)N1N=C(c2ccccc2)OC1c1ccc([N+](=O)[O-])s1 (stereo not drawn) | 8.65 | 
Oc1ccc2ccccc2c1/C=N/Nc1nnc(-c2ncc[nH]2)c2ccccc12 | 4.24 | 
Oc1ccc(/C=N/N(Cc2ccccc2)c2ccccc2)cc1 | 8.09 | 
O=C1S/C(=C/c2ccc(N3CCOCC3)o2)C(=O)N1Cc1c(F)cccc1Cl |  | 23.4% (inactive)
O=C1C=CC(=O)N1c1ccc(O)cc1 | 1.44 | 
COc1ccc(N=Nc2ccc(O)c3ncccc23)cc1 | 4.61 | 
N#C/C(=C/c1ccc(O)cc1)C(=O)NCc1ccc(Cl)cc1 |  | 10.6% (inactive)
O=C(/C=C/c1ccccc1)CCN1CCOCC1 | 2.47 | 
Cc1sc2ncnc(N/N=C/c3ccccc3O)c2c1C | 4.4 | 
COc1cccc(-c2nc(NC3CCCC3)c3ccccc3n2)c1O | 4.23 | 
CC1(c2nnc(Cc3ccccc3)o2)CC(c2ccccc2[N+](=O)[O-])=NO1 (stereo not drawn) | 1.77 | 
O=C(N/N=C/c1cc(Cl)c(O)c(Cl)c1)c1cc2c(ccc3ccccc32)o1 | 3.54 | 
O=C(CCCNC(=O)c1ccc(Cl)cc1)OCc1cccc(Br)c1 | 4.54 | 
CCC(C)(C)c1ccc(OCCCC[n+]2cccc(C)c2C)c(C(C)(C)CC)c1 | 4.06 | 
CCN(C(=O)C1CCCN(c2nc(-c3ccc(OC)cc3)no2)C1)c1ccc(OC)cc1 (stereo not drawn) | 4.85 | 
CC1=C/C(=N\OS(=O)(=O)c2ccccc2)C(C)=CC1=O | 0.597 | 
CCCCCCCCCCCCCCCC[n+]1cccc2ccccc21 | 3.05 | 

Structure (SMILES) | AC50 [µM] | activity change, negative = inhibition
Cc1cc(/C=C\c2ccc3cc(N(C)C)ccc3[n+]2C)c(C)n1-c1ccccc1 | 4.39 | 
CC(=O)NC(c1ccc(C)cc1)c1cc(Cl)c2cccnc2c1O (stereo not drawn) | 4.09 | 
CC(=NNc1nc2ccccc2o1)c1cc2ccccc2cn1 | 17.7 | 
Cc1c(CCCl)c(Cl)n2c(nc3ccccc32)c1C#N | 3.39 | 
Cn1cncc1C#Cc1c(-c2ccsc2)sc2ccccc12 | 7.55 | 
Oc1ccccc1N=Nc1nc(-c2ccccc2)c(-c2ccccc2)[nH]1 | 1.98 | 
Cc1ccc2nc(-c3cccc(NS(C)(=O)=O)c3)cc(-c3ccccc3)c2c1 | 9.6 | 
CCCCC(=O)NC(c1cccc([N+](=O)[O-])c1)c1ccc2cccnc2c1O (stereo not drawn) | 2.62 | 
COc1ccc(N(C(=O)c2ccncc2)S(=O)(=O)c2ccccc2)cc1 | 1.66 | 
O=C1C=CC(=O)N1c1cccc(-c2ccccc2)c1 | < 0.195 | 
COc1cccc2c1C(=O)c1c(O)c3c(c(O)c1C2=O)CC(O)(C(C)=O)CC3OC1CC(N(C)C)C(O)C(C)O1 (stereo not drawn) | 1.58 | 
O=[N+]([O-])c1ccc(Sc2cccc[n+]2[O-])c2nonc12 | 6.88 | 
CCOC(=O)c1c(-n2c(C)cc(C=C3C(=O)NC(=S)NC3=O)c2C)sc2c1CCCC2 | 2.99 | 
CC(C)=CCc1c(O)ccc(C2COc3c(CC=C(C)C)c(O)cc(O)c3C2=O)c1O (stereo not drawn) |  | -110% (inactive)
CN(C)c1ccc(C=c2c3ccccc3n3c2cc(-c2ccccc2)[n+]3C)cc1 | 4.33 | 
CCn1c(CNc2ccc(Cl)cc2)nnc1SCc1ccccc1 | 2.26 | 
COc1ccc(C(C)(C)C)cc1NC(=O)Nc1ccc2c(c1)OCO2 | 8.96 | 
CC1=C(C(=O)OCc2ccccc2)C(/C=C/c2ccccc2)NC(=S)N1 (stereo not drawn) | < 0.195 | 
COc1ccc(Nc2cnn(-c3nc4ccccc4s3)c(=O)c2Cl)cc1 | 3.21 | 
Oc1cc(OCc2ccccc2)ccc1-c1[nH]ncc1-c1ccccc1 | 9.04 | 
CCN(CC)C1CC(=O)N(c2ccc(Br)cc2)C1=O (stereo not drawn) | 2.97 | 
CC(C)C1Nc2c(O)cc(Cl)c([N+](=O)[O-])c2C2C=CCC21 (stereo not drawn) | 6.63 | 
CCN1C(=O)/C(=C\C(=O)c2cccs2)c2cc(Br)ccc21 | 4.28 | 

Structure (SMILES) | AC50 [µM] | activity change, negative = inhibition
COc1ccc(Cl)cc1C(Nc1cccnc1)c1ccc2cccnc2c1O (stereo not drawn) | 1.35 | 
c1ccc(-c2c(-c3ccccc3)n(Cc3ccco3)c3ncnc(NCCCn4ccnc4)c23)cc1 | 1.83 | 
O=C1CC(N2CCN(c3nc4ccccc4s3)CC2)C(=O)N1Cc1cccs1 (stereo not drawn) | 4.66 | 
O=C(Oc1c(Cl)cc(Cl)c2cccnc12)c1ccco1 | 0.696 | 
O=C(Nc1nnc(SCc2ccc(F)cc2)s1)c1ccccn1 | 4.41 | 
COc1cc(/C=C/[N+](=O)[O-])ccc1OC(=O)c1cccnc1 | 1.65 | 
Oc1ccc(Br)cc1/C=N/Nc1ccccn1 | 2.67 | 
O=C(Nc1cc(Cl)ccc1-n1cncn1)c1ccc([N+](=O)[O-])s1 | 4.2 | 
CCOCCCNC1=C(Cl)C(=O)c2ccccc2C1=O | 4.93 | 
CN1CCN(C(c2ccccn2)c2cc(Cl)c3cccnc3c2O)CC1 (stereo not drawn) | 7.88 | 
Cc1cccc(N2C(=O)/C(=C\c3ccc(OC(F)F)cc3)c3ccccc3C2=O)c1 | 4.64 | 
Cc1cccc(Nc2nc(N)c([N+](=O)[O-])c(N3CCCC(C)C3)n2)c1 (stereo not drawn) | 2.03 | 
Cc1cc(C)c(S(=O)(=O)NCC23C=CC(O2)C2C(=O)N(c4ccccc4)C(=O)C23)c(C)c1 (stereo not drawn) | 3.21 | 
Cc1cc2n(n1)C(c1c[nH]c3ccccc13)Nc1ccccc1-2 (stereo not drawn) | 2.67 | 
CC(CCc1ccccc1)NC(=O)c1ccc(Br)cc1 (stereo not drawn) | 4.71 | 
Cc1cccc(Nc2nc(N)c([N+](=O)[O-])c(N3CC(C)CC(C)C3)n2)c1 (stereo not drawn) | 3.22 | 
C=CCn1c(O)c(N=Nc2ccccc2O)c2ccccc21 | 8.15 | 
CC(=O)Nc1ccc2c(c1)Cc1cc(N3C(=O)C=CC3=O)ccc1-2 | 0.654 | 
CCC1=NN2C(=N)/C(=C\c3cccn3-c3ccc(C)cc3C)C(=O)N=C2S1 | 8.14 | 
CCN1C/C(=C/c2cccc([N+](=O)[O-])c2)C(=O)/C(=C/c2cccc([N+](=O)[O-])c2)C1 | 3.22 | 
COc1ccc(S(=O)(=O)N(C(=O)c2ccncc2)c2ccc(OC(=O)c3ccncc3)cc2)cc1 | 1.68 | 
